Eleven molecules from ChEMBL document CHEMBL3352643, “Synthesis and antiproliferative activity of 6-phenylaminopurines” (Eur J Med Chem, 2014) can be followed below.

Holding throughout (type): functional
Assay [1] can be described thus: Antiproliferative activity against human HMEC1 cells assessed as inhibition of cell proliferation after 4 days by Coulter counter based cell counting method. Particulars: HMEC-1, 96 h.
Assay [2] is described as follows: Antiproliferative activity against mouse MBEC assessed as inhibition of cell proliferation after 3 days by Coulter counter based cell counting method. The note with it: 72 h.
The nature of assay [3]: Antiproliferative activity against BAEC assessed as inhibition of cell proliferation after 3 days by Coulter counter based cell counting method. The note with it: Bos taurus, 72 h.
The next assay deals with L1210. Description: Antiproliferative activity against mouse L1210 assessed as inhibition of cell proliferation after 48 hrs by Coulter counter based cell counting method. Particulars: L1210, 48 h.
A further assay relates to CCRF-CEM. The assay can be described thus: Antiproliferative activity against human CEM cells assessed as inhibition of cell proliferation after 96 hrs by Coulter counter based cell counting method.
Assay [4] has as its system HeLa. Description: Antiproliferative activity against human HeLa cells assessed as inhibition of cell proliferation after 4 days by Coulter counter based cell counting method. The note with it: 96 h.
The test system of assay [5] is HeLa. Description: Induction of cell cycle arrest in human HeLa cells assessed as accumulation at subG1 phase at 20 uM after 24 hrs by propidium iodide staining based flow cytometry (reference value: 1%). For orientation: Flow cytometry measures light scatter and fluorescence of single cells or particles in a stream.
Assay [6] deals with HeLa. The assay can be described thus: Induction of cell cycle arrest in human HeLa cells assessed as accumulation at subG1 phase at 100 uM after 24 hrs by propidium iodide staining based flow cytometry (reference value: 1%).
Assay [7] concerns HeLa. The assay can be described thus: Induction of cell cycle arrest in human HeLa cells assessed as accumulation at G1 phase at 20 uM after 24 hrs by propidium iodide staining based flow cytometry (reference value: 45%).
Assay [8] relates to HeLa. The assay can be described thus: Induction of cell cycle arrest in human HeLa cells assessed as accumulation at G1 phase at 100 uM after 24 hrs by propidium iodide staining based flow cytometry (reference value: 45%).
Assay [9] relates to HeLa. The assay can be described thus: Induction of cell cycle arrest in human HeLa cells assessed as accumulation at S phase at 20 uM after 24 hrs by propidium iodide staining based flow cytometry (reference value: 24%).
Assay [10] has as its system HeLa. The assay can be described thus: Induction of cell cycle arrest in human HeLa cells assessed as accumulation at S phase at 100 uM after 24 hrs by propidium iodide staining based flow cytometry (reference value: 24%).
In assay [11] the test system is HeLa. Description: Induction of cell cycle arrest in human HeLa cells assessed as accumulation at G2/M phase at 20 uM after 24 hrs by propidium iodide staining based flow cytometry (reference value: 31%).
Assay [12] relates to HeLa. The assay can be described thus: Induction of cell cycle arrest in human HeLa cells assessed as accumulation at G2/M phase at 100 uM after 24 hrs by propidium iodide staining based flow cytometry (reference value: 31%).
The test system of assay [13] is HeLa. The assay can be described thus: Induction of cell cycle arrest in human HeLa cells assessed as accumulation at subG1 phase at 4 uM after 24 hrs by propidium iodide staining based flow cytometry (reference value: 1%).
In assay [14] the test system is HeLa. The assay can be described thus: Induction of cell cycle arrest in human HeLa cells assessed as accumulation at G1 phase at 4 uM after 24 hrs by propidium iodide staining based flow cytometry (reference value: 45%).
Assay [15] deals with HeLa. Description: Induction of cell cycle arrest in human HeLa cells assessed as accumulation at S phase at 4 uM after 24 hrs by propidium iodide staining based flow cytometry (reference value: 24%).
Assay [16] has as its system HeLa. The assay can be described thus: Induction of cell cycle arrest in human HeLa cells assessed as accumulation at G2/M phase at 4 uM after 24 hrs by propidium iodide staining based flow cytometry (reference value: 31%).
For assay [17], the system named is HeLa. The assay can be described thus: Induction of cell cycle arrest in human HeLa cells assessed as accumulation at subG1 phase at 0.1 uM after 24 hrs by propidium iodide staining based flow cytometry (reference value: 1%).
Assay [18] concerns HeLa. The assay can be described thus: Induction of cell cycle arrest in human HeLa cells assessed as accumulation at G1 phase at 0.1 uM after 24 hrs by propidium iodide staining based flow cytometry (reference value: 45%).
Assay [19] concerns HeLa. The assay can be described thus: Induction of cell cycle arrest in human HeLa cells assessed as accumulation at S phase at 0.1 uM after 24 hrs by propidium iodide staining based flow cytometry (reference value: 24%).
Assay [20] relates to HeLa. The assay can be described thus: Induction of cell cycle arrest in human HeLa cells assessed as accumulation at G2/M phase at 0.1 uM after 24 hrs by propidium iodide staining based flow cytometry (reference value: 31%).

Turning to `COc1ccc(N(C)c2nc(C)nc3c2nc(C)n3C)cc1`, the IC50 (usually the concentration at which inhibition is half-maximal) in assay [1] worked out at 7.3 µM; in [2] it was 8.7 µM; in assay [3] it was 7.4 µM; in the assay with L1210 (read-out: IC50) it was 19 µM; in the assay on CCRF-CEM, 6.2 µM; in the assay on HeLa [4], 4.5 µM. Moreover, the Activity in the assay with HeLa [5] came to 39%; in the assay on HeLa [6], 14%; with HeLa [7], 18%; with HeLa [8], 8%; in the assay on HeLa [9], 29%; with HeLa [10], 15%. The Activity worked out at 25% in the assay with HeLa [11] and 63% in the assay on HeLa [12].
With `COc1ccc(Nc2nc(C)nc3c2nc(C)n3C)cc1`, the IC50 is not below 100 µM in assay [1]; not below 100 µM in [2]; not below 100 µM in assay [3]; not below 250 µM in the assay on L1210 (read-out: IC50); more than 250 µM in the assay on CCRF-CEM; 197 µM with HeLa [4].
For `COc1cccc(N(C)c2nc(C)nc3c2nc(C)n3C)c1`, the IC50 was not below 100 µM in [1]; not below 100 µM in [2]; not below 100 µM in [3]; more than 250 µM in the assay with L1210 (read-out: IC50); more than 250 µM in the assay with CCRF-CEM; more than 250 µM with HeLa [4].
As to `Cc1ccc(N(C)c2nc(C)nc3c2nc(C)n3C)cc1`, the IC50 in assay [1] was more than 100 µM; in assay [2] it was more than 100 µM; in assay [3], more than 100 µM; in the assay with L1210 (read-out: IC50) it was not below 250 µM; with CCRF-CEM, 164 µM; in the assay on HeLa [4] it was not below 250 µM.
Consider `Cc1nc(N(C)c2ccc(OC(F)(F)F)cc2)c2nc(C)n(C)c2n1`, for which the IC50 was more than 100 µM in [1]; more than 100 µM in assay [2]; more than 100 µM in assay [3]; more than 250 µM with L1210 (read-out: IC50); 132 µM with CCRF-CEM; 188 µM in the assay on HeLa [4].
As to `COc1ccc(N(C)c2ncnc3c2nc(C)n3C)cc1`, the half-maximal inhibitory concentration (IC50) in [1] was not below 100 µM; in assay [2], not below 100 µM; in assay [3], not below 100 µM; in the assay on L1210 (read-out: IC50), more than 250 µM; in the assay on CCRF-CEM, more than 250 µM; in the assay with HeLa [4], more than 250 µM.
As to `COc1ccc(N(C)c2nc(C)nc3c2ncn3C)cc1`, the IC50 in assay [1] was determined as 9.2 µM; in assay [2], 15 µM; in assay [3], 9.3 µM; in the assay with L1210 (read-out: IC50), 30 µM; in the assay with CCRF-CEM it was 21 µM; with HeLa [4], 22 µM.
In the case of `COc1ccc(N(C)c2nc(C)nc3[nH]c(C)nc23)cc1`, the IC50 in [1] came to 7.1 µM; in assay [2], 8.9 µM; in assay [3], 8.9 µM; in the assay with L1210 (read-out: IC50), 229 µM; in the assay with CCRF-CEM, 23 µM; in the assay with HeLa [4], 14 µM. Besides, the Activity in the assay on HeLa [5] is 5%; in the assay on HeLa [6], 11%; with HeLa [7], 39%; in the assay on HeLa [8], 6%; in the assay with HeLa [9], 27%; in the assay with HeLa [10], 15%. For the same molecule, the figures for the Activity with HeLa [11] and in the assay on HeLa [12] were 31% and 68%, respectively.
On to `CCN(c1ccc(OC)cc1)c1nc(C)nc2c1nc(C)n2C`, for which the IC50 in [1] turned out to be 8.8 µM; in [2] it was 15 µM; in assay [3] it was 11 µM; with L1210 (read-out: IC50), 35 µM; in the assay on CCRF-CEM it was 16 µM; in the assay with HeLa [4] it was 20 µM. In addition, the Activity with HeLa [5] came to 6%; in the assay with HeLa [6], 36%; in the assay with HeLa [7], 39%; in the assay with HeLa [8] it was 12%; with HeLa [9] it was 27%; in the assay with HeLa [10], 18%. Further, the Activity in the assay on HeLa [11] turned out to be 28%; with HeLa [12] it was 34%.
With `COc1ccc2c(c1)CCCN2c1nc(C)nc2c1nc(C)n2C`, the IC50 in assay [1] was determined as 2.3 µM; in assay [2] it was 4.4 µM; in assay [3] it was 2.4 µM; in the assay with L1210 (read-out: IC50), 5.1 µM; in the assay with CCRF-CEM, 3.5 µM; in the assay on HeLa [4], 4.4 µM. Moreover, the Activity is given as 7% in the assay with HeLa [5]; 8% in the assay on HeLa [6]; 20% with HeLa [13]; 3% in the assay with HeLa [7]; 3% in the assay with HeLa [8]; 35% with HeLa [14]. For the same molecule, the Activity with HeLa [9] worked out at 8%; with HeLa [10] it was 8%; with HeLa [15] it was 18%; with HeLa [11], 80%; in the assay on HeLa [12], 79%; with HeLa [16], 27%.
Consider `COc1cc2c(c(OC)c1OC)-c1ccc(OC)c(=O)cc1[C@@H](NC(C)=O)CC2` [COLCHICINE], for which the IC50 turned out to be 0.031 µM in assay [2], 0.0069 µM in [3], 0.014 µM in the assay on L1210 and 0.031 µM with CCRF-CEM. For the same molecule, the Activity is listed as 6% in the assay with HeLa [17], 5% in the assay with HeLa [18], 10% in the assay with HeLa [19] and 80% in the assay on HeLa [20].
